Columns and labels:
S. aureus Newman [1] = assay: fitness (endpoint OD595 vs no drug) (fraction); higher = more growth
Procedure, shortened: (§1)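 Fitness was measured as bacterial growth in 384-well plates inoculated at OD595 0.01 (30 µl, or 55 µl for S. pneumoniae). Media were TSB, LB Lennox or CY, at 37 °C. OD595 was read every 30 min for 14 h and background-subtracted against the first reading. Fitness is OD595 at the transition into stationary phase divided by the robust mean of no-drug control wells, capped at 1.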

S. pneumoniae D39V [2] = assay: as above
Procedure, shortened: as §1

B. subtilis 168 [3] = assay: as above
Procedure, shortened: as §1

S. aureus Newman [4] = assay: Bliss interaction score (quartile over a dose matrix) (fitness difference); higher = more antagonism (negative = synergy)
Procedure, shortened: (§2)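 Each OD595 reading at entry into stationary phase was scaled to the robust mean of the untreated wells on its plate, with a ceiling of 1. These ratios define fitness, and single-drug fitness was inferred from combinations. The Bliss score compares observed fitness with the product-based expectation and is reported as quartiles across all replicate types, technical, biological and donor/recipient.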

S. pneumoniae D39V [5] = assay: as above
Procedure, shortened: as §2

B. subtilis 168 [6] = assay: as above
Procedure, shortened: as §2

S. aureus DSM 20231 = assay: as above
Procedure, shortened: as §2
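For Bliss interaction score (quartile over a dose matrix) in this document: first quartile when negative (synergy) and third quartile when positive (antagonism).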
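For fitness (endpoint OD595 vs no drug) in this document: OD595 on entry to stationary phase over no-drug wells; at most 1.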

CC1=C(C(=O)O)N2C(=O)[C@@H](NC(=O)[C@H](N)c3ccccc3)[C@H]2SC1 [Cephalexin] + Cc1ncc([N+](=O)[O-])n1CCO [Metronidazole]
fitness
Conditions	partner 0.625 µg/mL	partner 1.073 µg/mL	partner 1.25 µg/mL	partner 2.145 µg/mL	partner 2.5 µg/mL	partner 4.29 µg/mL
B. subtilis 168 [3], first compound 0.125 µg/mL	0.958	–	0.936	–	0.963	–
B. subtilis 168 [3], first compound 0.25 µg/mL	0.94	–	0.91	–	0.86	–
B. subtilis 168 [3], first compound 0.5 µg/mL	0.943	–	0.932	–	0.926	–
S. aureus Newman [1], first compound 0.25 µg/mL	0.962	–	≥ 1	–	≥ 1	–
S. aureus Newman [1], first compound 0.5 µg/mL	0.994	–	0.984	–	≥ 1	–
S. aureus Newman [1], first compound 1 µg/mL	≥ 1	–	≥ 1	–	≥ 1	–
S. pneumoniae D39V [2], first compound 4 µg/mL	–	0.0041	–	0.0332	–	0.0078

fitness, one replicate
Conditions	first compound 0.125 µg/mL	first compound 0.25 µg/mL	first compound 0.5 µg/mL	first compound 1 µg/mL
S. aureus Newman [1], partner 0.781 µg/mL	–	0.989	≥ 1	≥ 1
S. aureus Newman [1], partner 1.562 µg/mL	–	≥ 1	≥ 1	≥ 1
S. aureus Newman [1], partner 3.124 µg/mL	–	0.998	≥ 1	≥ 1
S. pneumoniae D39V [2], partner 1.25 µg/mL	≥ 1	0.989	≥ 1	–
S. pneumoniae D39V [2], partner 2.5 µg/mL	≥ 1	≥ 1	≥ 1	–
S. pneumoniae D39V [2], partner 5 µg/mL	0.971	≥ 1	≥ 1	–

Conditions	Bliss interaction score
B. subtilis 168 [6]	-0.0395
S. aureus DSM 20231	0.0322
S. aureus Newman [4]	0.0215
S. pneumoniae D39V [5]	0.132

CC1=C(C(=O)O)N2C(=O)[C@@H](NC(=O)[C@H](N)c3ccccc3)[C@H]2SC1 [Cephalexin] + Cc1onc(-c2ccccc2)c1C(=O)N[C@@H]1C(=O)N2[C@@H]1SC(C)(C)[C@@H]2C(=O)O [Oxacillin]
Conditions	fitness
B. subtilis 168 [3], first compound 0.125 µg/mL, partner 0.002 µg/mL	0.975
B. subtilis 168 [3], first compound 0.125 µg/mL, partner 0.004 µg/mL	0.879
B. subtilis 168 [3], first compound 0.125 µg/mL, partner 0.008 µg/mL	0.896
B. subtilis 168 [3], first compound 0.25 µg/mL, partner 0.002 µg/mL	0.911
B. subtilis 168 [3], first compound 0.25 µg/mL, partner 0.004 µg/mL	0.948
B. subtilis 168 [3], first compound 0.25 µg/mL, partner 0.008 µg/mL	0.879
B. subtilis 168 [3], first compound 0.5 µg/mL, partner 0.002 µg/mL	0.925
B. subtilis 168 [3], first compound 0.5 µg/mL, partner 0.004 µg/mL	0.961
B. subtilis 168 [3], first compound 0.5 µg/mL, partner 0.008 µg/mL	0.97
S. aureus Newman [1], first compound 0.25 µg/mL, partner 0.0156 µg/mL	0.803
S. aureus Newman [1], first compound 0.25 µg/mL, partner 0.0312 µg/mL	0.761
S. aureus Newman [1], first compound 0.25 µg/mL, partner 0.0625 µg/mL	0.727
S. aureus Newman [1], first compound 0.5 µg/mL, partner 0.0156 µg/mL	0.768
S. aureus Newman [1], first compound 0.5 µg/mL, partner 0.0312 µg/mL	0.749
S. aureus Newman [1], first compound 0.5 µg/mL, partner 0.0625 µg/mL	0.675
S. aureus Newman [1], first compound 1 µg/mL, partner 0.0156 µg/mL	0.721
S. aureus Newman [1], first compound 1 µg/mL, partner 0.0312 µg/mL	0.72
S. aureus Newman [1], first compound 1 µg/mL, partner 0.0625 µg/mL	0.651
S. pneumoniae D39V [2], first compound 1 µg/mL, partner 0.02 µg/mL	0.171
S. pneumoniae D39V [2], first compound 1 µg/mL, partner 0.04 µg/mL	0.0188
S. pneumoniae D39V [2], first compound 2 µg/mL, partner 0.01 µg/mL	0.1
S. pneumoniae D39V [2], first compound 2 µg/mL, partner 0.02 µg/mL	0.044
S. pneumoniae D39V [2], first compound 2 µg/mL, partner 0.04 µg/mL	0.0313
S. pneumoniae D39V [2], first compound 4 µg/mL, partner 0.01 µg/mL	0.0222
S. pneumoniae D39V [2], first compound 4 µg/mL, partner 0.02 µg/mL	0.0259
S. pneumoniae D39V [2], first compound 4 µg/mL, partner 0.04 µg/mL	0.0275

fitness, one replicate
Conditions	first compound 0.125 µg/mL	first compound 0.25 µg/mL	first compound 0.5 µg/mL	first compound 1 µg/mL
B. subtilis 168 [3], partner 0.075 µg/mL	–	0.65	0.551	0.563
B. subtilis 168 [3], partner 0.15 µg/mL	–	0.0401	0.0556	0.0643
B. subtilis 168 [3], partner 0.3 µg/mL	–	0.0429	0.0316	0.051
S. pneumoniae D39V [2], partner 0.01 µg/mL	≥ 1	0.989	0.99	–
S. pneumoniae D39V [2], partner 0.02 µg/mL	0.92	0.897	0.886	–
S. pneumoniae D39V [2], partner 0.04 µg/mL	0.175	0.196	0.124	–

Conditions	Bliss interaction score
B. subtilis 168 [6]	0.0457
S. aureus DSM 20231	0.0592
S. aureus Newman [4]	0.0632
S. pneumoniae D39V [5]	-0.216

CNC(C)C1CCC(N)C(OC2C(N)CC(N)C(OC3OCC(C)(O)C(NC)C3O)C2O)O1 (centres undefined) [Gentamicin] + CC1=C\[C@@H](O)CC(=O)Cc2nc(co2)C(=O)N2CCC=C2C(=O)O[C@H](C(C)C)[C@H](C)/C=C/C(=O)NC\C=C\1 [Virginiamycin M1]
fitness, main component drawn
Conditions	partner 0.0625 µg/mL	partner 0.125 µg/mL	partner 0.25 µg/mL	partner 0.5 µg/mL	partner 1 µg/mL	partner 2 µg/mL
B. subtilis 168 [3], first compound 0.0625 µg/mL	0.895	0.897	0.905	–	–	–
B. subtilis 168 [3], first compound 0.25 µg/mL	0.0328	0.0454	0.0523	–	–	–
S. aureus Newman [1], first compound 0.5 µg/mL	0.959	0.996	0.995	–	–	–
S. aureus Newman [1], first compound 1 µg/mL	≥ 1	≥ 1	≥ 1	–	–	–
S. aureus Newman [1], first compound 2 µg/mL	≥ 1	≥ 1	≥ 1	–	–	–
S. pneumoniae D39V [2], first compound 2 µg/mL	–	–	–	0.973	≥ 1	0.952
S. pneumoniae D39V [2], first compound 4 µg/mL	–	–	–	0.99	≥ 1	0.973
S. pneumoniae D39V [2], first compound 8 µg/mL	–	–	–	0.991	≥ 1	0.943

fitness, one replicate, main component drawn
Conditions	first compound 1 µg/mL	first compound 2 µg/mL	first compound 4 µg/mL	first compound 8 µg/mL
S. aureus Newman [1], partner 0.5 µg/mL	0.849	0.873	0.22	–
S. aureus Newman [1], partner 1 µg/mL	0.961	≥ 1	0.0961	–
S. aureus Newman [1], partner 2 µg/mL	0.849	0.792	0.0867	–
S. pneumoniae D39V [2], partner 0.15 µg/mL	–	≥ 1	≥ 1	≥ 1
S. pneumoniae D39V [2], partner 0.3 µg/mL	–	≥ 1	≥ 1	0.944

main component drawn
Conditions	Bliss interaction score
B. subtilis 168 [6]	-0.0977
S. aureus DSM 20231	0.094
S. aureus Newman [4]	-0.0365
S. pneumoniae D39V [5]	0.0786

— the supplement of paper PMC10627819
